Legend:
Details in all cases: Compound concentration 10 µM
[1] = target: T1, Alpha-2B adrenergic receptor (Homo sapiens) (UniProt P18089)
T1 sequence (whole entry): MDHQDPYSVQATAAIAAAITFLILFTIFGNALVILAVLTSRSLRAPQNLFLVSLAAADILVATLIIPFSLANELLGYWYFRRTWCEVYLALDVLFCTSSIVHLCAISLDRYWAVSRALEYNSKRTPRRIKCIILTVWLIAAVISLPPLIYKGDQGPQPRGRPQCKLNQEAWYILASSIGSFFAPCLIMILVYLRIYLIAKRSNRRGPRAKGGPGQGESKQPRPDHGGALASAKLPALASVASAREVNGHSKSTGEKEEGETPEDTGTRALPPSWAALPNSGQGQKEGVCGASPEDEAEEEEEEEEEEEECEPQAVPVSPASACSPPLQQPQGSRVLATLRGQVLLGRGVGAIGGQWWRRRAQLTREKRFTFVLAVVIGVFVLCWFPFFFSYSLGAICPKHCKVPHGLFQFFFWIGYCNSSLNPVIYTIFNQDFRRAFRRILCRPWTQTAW
Description: PDSP Primary Binding target: ADRA2B - Compounds are tested at 10 uM concentration, plate are incubated at room temperature in the dark for 90 minutes. Reaction are stopped by vacuum filtration onto 0.3% polyethyleneimine soaked filter mats using Filtermate harvester. Scintilation cocktail is then melted onto microwave-dried filters on a hot plate and the radio activity is counted in Microbia counter.

[2] = target: Beta-1 adrenergic receptor (Homo sapiens) (UniProt P08588)
Description: PDSP Primary Binding target: ADRB1 - Compounds are tested at 10 uM concentration, plate are incubated at room temperature in the dark for 90 minutes. Reaction are stopped by vacuum filtration onto 0.3% polyethyleneimine soaked filter mats using Filtermate harvester. Scintilation cocktail is then melted onto microwave-dried filters on a hot plate and the radio activity is counted in Microbia counter.

[3] = target: D(3) dopamine receptor (Homo sapiens) (UniProt P35462)
Description: PDSP Primary Binding target: DRD3 - Compounds are tested at 10 uM concentration, plate are incubated at room temperature in the dark for 90 minutes. Reaction are stopped by vacuum filtration onto 0.3% polyethyleneimine soaked filter mats using Filtermate harvester. Scintilation cocktail is then melted onto microwave-dried filters on a hot plate and the radio activity is counted in Microbia counter.

[4] = target: T2, D(4) dopamine receptor (Homo sapiens) (UniProt P21917)
T2 sequence (whole entry): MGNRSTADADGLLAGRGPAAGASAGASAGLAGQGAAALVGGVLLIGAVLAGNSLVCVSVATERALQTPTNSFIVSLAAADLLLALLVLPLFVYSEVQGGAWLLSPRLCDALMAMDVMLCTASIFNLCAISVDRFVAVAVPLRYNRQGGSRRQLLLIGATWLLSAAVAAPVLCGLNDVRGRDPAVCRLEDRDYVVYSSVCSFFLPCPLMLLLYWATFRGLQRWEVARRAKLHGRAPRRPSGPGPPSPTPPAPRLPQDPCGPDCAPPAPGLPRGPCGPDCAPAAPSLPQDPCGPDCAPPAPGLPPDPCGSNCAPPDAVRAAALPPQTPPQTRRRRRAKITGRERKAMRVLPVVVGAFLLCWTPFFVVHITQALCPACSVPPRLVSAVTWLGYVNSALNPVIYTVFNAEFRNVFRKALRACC
Description: PDSP Primary Binding target: DRD4 - Compounds are tested at 10 uM concentration, plate are incubated at room temperature in the dark for 90 minutes. Reaction are stopped by vacuum filtration onto 0.3% polyethyleneimine soaked filter mats using Filtermate harvester. Scintilation cocktail is then melted onto microwave-dried filters on a hot plate and the radio activity is counted in Microbia counter.

[5] = target: Mu-type opioid receptor (Homo sapiens) (UniProt P35372)
Description: PDSP Primary Binding target: OPRM1 - Compounds are tested at 10 uM concentration, plate are incubated at room temperature in the dark for 90 minutes. Reaction are stopped by vacuum filtration onto 0.3% polyethyleneimine soaked filter mats using Filtermate harvester. Scintilation cocktail is then melted onto microwave-dried filters on a hot plate and the radio activity is counted in Microbia counter.

[6] = target: Sodium-dependent noradrenaline transporter (Homo sapiens) (UniProt P23975)
Description: PDSP Primary Binding target: SLC6A2 - Compounds are tested at 10 uM concentration, plate are incubated at room temperature in the dark for 90 minutes. Reaction are stopped by vacuum filtration onto 0.3% polyethyleneimine soaked filter mats using Filtermate harvester. Scintilation cocktail is then melted onto microwave-dried filters on a hot plate and the radio activity is counted in Microbia counter.

[7] = target: T3, Muscarinic acetylcholine receptor M4 (Homo sapiens) (UniProt P08173)
T3 sequence (whole entry): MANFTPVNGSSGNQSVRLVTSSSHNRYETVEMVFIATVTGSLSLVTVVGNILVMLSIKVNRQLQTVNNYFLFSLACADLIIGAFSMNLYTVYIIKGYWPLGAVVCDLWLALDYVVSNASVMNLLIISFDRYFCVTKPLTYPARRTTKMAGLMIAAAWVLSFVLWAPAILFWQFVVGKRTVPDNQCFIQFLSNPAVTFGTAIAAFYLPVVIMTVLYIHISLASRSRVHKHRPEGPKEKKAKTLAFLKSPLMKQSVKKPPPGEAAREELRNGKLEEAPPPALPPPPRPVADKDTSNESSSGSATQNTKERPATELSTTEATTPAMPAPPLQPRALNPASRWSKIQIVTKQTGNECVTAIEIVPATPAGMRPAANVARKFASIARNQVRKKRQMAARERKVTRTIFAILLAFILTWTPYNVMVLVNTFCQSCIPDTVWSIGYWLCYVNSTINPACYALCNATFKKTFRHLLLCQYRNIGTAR
Description: PDSP Primary Binding target: CHRM4 - Compounds are tested at 10 uM concentration, plate are incubated at room temperature in the dark for 90 minutes. Reaction are stopped by vacuum filtration onto 0.3% polyethyleneimine soaked filter mats using Filtermate harvester. Scintilation cocktail is then melted onto microwave-dried filters on a hot plate and the radio activity is counted in Microbia counter.

[8] = target: T4, Muscarinic acetylcholine receptor M5 (Homo sapiens) (UniProt P08912)
T4 sequence (whole entry): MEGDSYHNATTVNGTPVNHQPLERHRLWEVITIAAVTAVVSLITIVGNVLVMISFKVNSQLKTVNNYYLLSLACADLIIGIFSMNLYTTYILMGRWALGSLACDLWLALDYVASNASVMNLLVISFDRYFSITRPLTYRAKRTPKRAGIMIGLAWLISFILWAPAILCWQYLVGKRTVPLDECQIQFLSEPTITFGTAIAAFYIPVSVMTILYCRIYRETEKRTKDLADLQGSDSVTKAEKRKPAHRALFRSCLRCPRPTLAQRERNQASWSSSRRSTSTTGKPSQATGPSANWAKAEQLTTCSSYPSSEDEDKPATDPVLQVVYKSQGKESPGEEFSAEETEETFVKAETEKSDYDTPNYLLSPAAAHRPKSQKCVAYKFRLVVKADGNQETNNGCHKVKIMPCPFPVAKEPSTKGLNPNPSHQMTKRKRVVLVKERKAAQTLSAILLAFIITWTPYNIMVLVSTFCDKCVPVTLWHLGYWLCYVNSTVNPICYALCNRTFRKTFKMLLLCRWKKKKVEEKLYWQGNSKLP
Description: PDSP Primary Binding target: CHRM5 - Compounds are tested at 10 uM concentration, plate are incubated at room temperature in the dark for 90 minutes. Reaction are stopped by vacuum filtration onto 0.3% polyethyleneimine soaked filter mats using Filtermate harvester. Scintilation cocktail is then melted onto microwave-dried filters on a hot plate and the radio activity is counted in Microbia counter.

Sequence of D(3) dopamine receptor (Homo sapiens) (P35462 whole entry): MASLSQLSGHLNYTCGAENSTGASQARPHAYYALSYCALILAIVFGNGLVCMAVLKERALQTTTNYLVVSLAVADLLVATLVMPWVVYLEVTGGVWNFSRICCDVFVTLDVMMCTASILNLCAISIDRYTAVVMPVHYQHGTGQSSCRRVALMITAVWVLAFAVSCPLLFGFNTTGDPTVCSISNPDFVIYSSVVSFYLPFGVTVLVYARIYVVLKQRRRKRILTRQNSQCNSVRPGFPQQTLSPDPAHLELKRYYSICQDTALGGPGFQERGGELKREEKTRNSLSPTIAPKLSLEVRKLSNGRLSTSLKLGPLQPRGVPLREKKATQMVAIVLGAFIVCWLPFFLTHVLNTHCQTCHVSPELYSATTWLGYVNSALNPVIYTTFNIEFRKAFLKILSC
Sequence of Mu-type opioid receptor (Homo sapiens) (P35372 whole entry): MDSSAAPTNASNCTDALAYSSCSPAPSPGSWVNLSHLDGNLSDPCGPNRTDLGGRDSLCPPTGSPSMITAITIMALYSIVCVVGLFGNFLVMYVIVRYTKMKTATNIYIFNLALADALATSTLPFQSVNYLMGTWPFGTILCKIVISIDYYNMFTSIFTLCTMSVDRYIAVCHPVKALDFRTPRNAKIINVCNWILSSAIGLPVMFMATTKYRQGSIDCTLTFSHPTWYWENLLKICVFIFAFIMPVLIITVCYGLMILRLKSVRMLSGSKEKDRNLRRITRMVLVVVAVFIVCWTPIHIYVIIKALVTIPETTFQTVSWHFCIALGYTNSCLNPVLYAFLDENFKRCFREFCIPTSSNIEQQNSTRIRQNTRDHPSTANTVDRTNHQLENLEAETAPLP
Sequence of Beta-1 adrenergic receptor (Homo sapiens) (P08588 whole entry, looked up): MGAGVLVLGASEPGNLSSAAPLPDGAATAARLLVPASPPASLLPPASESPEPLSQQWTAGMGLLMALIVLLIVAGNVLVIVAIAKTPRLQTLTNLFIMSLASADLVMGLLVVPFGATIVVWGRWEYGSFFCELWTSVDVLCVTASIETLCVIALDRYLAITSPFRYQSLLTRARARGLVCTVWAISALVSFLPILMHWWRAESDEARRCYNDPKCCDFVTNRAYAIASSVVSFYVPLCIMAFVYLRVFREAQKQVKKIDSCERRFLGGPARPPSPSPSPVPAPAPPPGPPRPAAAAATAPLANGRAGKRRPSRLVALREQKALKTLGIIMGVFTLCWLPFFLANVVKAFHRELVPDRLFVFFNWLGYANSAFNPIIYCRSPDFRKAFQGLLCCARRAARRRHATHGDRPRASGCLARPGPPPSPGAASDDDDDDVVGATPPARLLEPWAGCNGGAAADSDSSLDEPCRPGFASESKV
Sequence of Sodium-dependent noradrenaline transporter (Homo sapiens) (P23975 whole entry): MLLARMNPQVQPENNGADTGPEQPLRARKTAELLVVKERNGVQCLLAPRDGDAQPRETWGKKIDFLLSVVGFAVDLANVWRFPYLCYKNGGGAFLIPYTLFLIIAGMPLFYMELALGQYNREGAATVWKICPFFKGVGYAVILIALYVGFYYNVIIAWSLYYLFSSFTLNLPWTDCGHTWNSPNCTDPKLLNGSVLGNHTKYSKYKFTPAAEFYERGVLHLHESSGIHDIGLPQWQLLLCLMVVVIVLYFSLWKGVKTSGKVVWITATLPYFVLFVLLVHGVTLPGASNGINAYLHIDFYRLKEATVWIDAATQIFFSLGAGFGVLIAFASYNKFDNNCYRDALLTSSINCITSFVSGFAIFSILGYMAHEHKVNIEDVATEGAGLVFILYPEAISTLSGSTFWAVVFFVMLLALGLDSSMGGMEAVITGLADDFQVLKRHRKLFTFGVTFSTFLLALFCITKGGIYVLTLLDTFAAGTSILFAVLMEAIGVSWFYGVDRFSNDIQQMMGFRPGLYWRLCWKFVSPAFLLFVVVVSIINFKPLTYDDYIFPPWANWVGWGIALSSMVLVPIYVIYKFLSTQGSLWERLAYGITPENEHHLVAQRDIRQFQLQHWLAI

| SMILES | inhibition [1] | inhibition [2] | inhibition [3] | inhibition [4] | inhibition [5] | inhibition [6] | inhibition [7] | inhibition [8] |
| --- | --- | --- | --- | --- | --- | --- | --- | --- |
| Cc1cc(C)c(N)c(C#Cc2cccc(F)c2)n1 | 12.9% | -7.35% | 9.35% | -9.97% | 2.84% | 65.2% |  |  |
| Cc1c(F)cccc1NC(=O)Nc1ccc(Cl)c(S(=O)(=O)[C@H]2CCCNC2)c1O | 3.18% |  | 25.8% | 6.5% | -3.61% |  | -3.99% |  |
| Brc1c(NC2=NCCN2)ccc2nccnc12 |  | 23.8% | 29.2% | 16.9% | 0.59% | 19.2% |  |  |
| O=C1N/C(=N/c2ccccc2F)S/C1=C\c1ccc(C(=O)O)cc1 | -7.72% | 9.47% | 5.3% | 79.2% | 56% | 9.3% |  |  |
| Clc1cccc(Cl)c1NC1=NCCN1 |  | 31.6% | 19.4% | -2.87% | 3.84% | 20.9% | -8.53% | 0.71% |
| CC(C)[C@H](CO)Nc1nc(Nc2cccc(Cl)c2)c2ncn(C(C)C)c2n1 | 28.1% | 29.9% | 22.4% | 62.7% | 9.06% | 54.1% |  | 21.1% |
| COc1ccc2[nH]cc(CCNC(C)=O)c2c1 |  | 12% | -7.6% | 1.97% |  | -9.78% |  |  |
| CN(C)S(=O)(=O)c1ccc(NC(=S)N2CCC(C(O)(c3ccccc3)c3ccccc3)CC2)cc1 | 14.4% |  | 21.5% | 8.69% | 2.22% | 15.8% | -6.86% |  |
| O=C(O)COc1cccc(CN(Cc2ccc(-n3cccn3)cc2)S(=O)(=O)c2cccnc2)c1 | -5.85% |  | 5.78% | 4.77% | -4.37% |  | -2.13% | -5.22% |
| Cc1nn(C)c(C)c1-c1cccc2c1CC[C@H](N(C)C)C2 | 92.2% |  | -2.85% | 24.5% | 14.6% | -2.38% | 5.06% | 69.2% |
| CC(C)(C(=O)O)c1ccc(C(O)CCCN2CCC(C(O)(c3ccccc3)c3ccccc3)CC2)cc1 (stereo not given) |  |  | 53% | 19.6% |  |  | -3.2% |  |
| O=c1ccn([C@@H]2O[C@H](COP(=O)(O)OP(=O)(O)OP(=O)(O)O)[C@@H](O)[C@H]2O)c(=O)[nH]1 | 0.09% | -2.2% | 22.3% | 53.3% | 27.4% | 11% | -4.92% | 7.7% |
| CCc1cc2c(cc1CC)CC(NC[C@H](O)c1ccc(O)c3[nH]c(=O)ccc13)C2 | 38.5% | 68% | 58.8% | 24.2% | 21% | 84.6% | 17.9% | 37.8% |
| CNC[C@H](O)c1ccc(O)c(O)c1 |  | 37% | 47.1% | 20.1% | -2.25% |  |  |  |
| CCC(=O)NCC[C@@H]1CCc2ccc3c(c21)CCO3 | 22% | 28.5% | 8.49% | -3.2% | -7.21% | 18% | -2.55% |  |
| CC1CCN(CC[C@H]2CCCN2S(=O)(=O)c2cccc(O)c2)CC1 | 51% | 9.71% | 61.6% | 22.1% | 62.9% | 30.6% | 8.85% | 1.99% |
| COC(=O)[C@H]1[C@H]2C[C@H]3c4[nH]c5ccccc5c4CCN3C[C@H]2CC[C@@H]1O |  | 6.36% | 31% | 40.2% | 28.7% | 43.4% | -4.59% | 4.29% |
| CCc1nn2c(C)cc(C)nc2c1Cc1ccc(-c2nnc(C3CCNCC3)o2)cc1 | 27.4% | -6.08% | -9.36% | -4.88% | 50.7% | -8.38% | -6.61% |  |
| Cc1ccc2c(c1)c1c(n2CCc2ccc(C)nc2)CCN(C)C1 | 91.7% |  | 72.3% | 52.7% | 2.42% | -7.44% | 5.78% | -2.89% |
| Cc1ccccc1N1CCN(S(=O)(=O)C[C@]23CC[C@H](C[C@@H]2NC(=O)[C@@H](N)CCS(C)(=O)=O)C3(C)C)CC1 | 11.2% | 0.75% |  | -6.27% | 15.9% |  |  |  |
| CCc1nn(CCCN2CCN(c3cccc(Cl)c3)CC2)c(=O)n1CCOc1ccccc1 | 103% | 30.7% | 86.1% | 89.3% | 32.2% | 85.1% |  | 30.8% |
| N#Cc1c[nH]c2c(C(=O)N3CCN(CCc4ccc(F)cc4)CC3)cccc12 | -6.2% | 35.6% | 10.4% | 81.9% |  | 71.6% |  | -9.78% |
| Cc1cc(C)cc(-c2cnc3cc(Cl)c(-c4cccc(O)c4)cc3c2OCCCN)c1 | 25.7% | 19.6% | 95.9% | 32.1% | 75.9% | 59.5% | 8.82% | 3.7% |
| CCCn1c(=O)c2nc(C34CC5CC(CC3C5)C4)[nH]c2n(CCC)c1=O | 6.22% |  | -4.54% | 1.06% | 9.1% |  |  |  |
| N#Cc1c(N)nc(SCc2csc(-c3ccc(Cl)cc3)n2)c(C#N)c1-c1ccc(OCCO)cc1 | 2.13% | 26.8% | 12.5% | 38.4% |  | 33.5% | -8.79% |  |
| C[C@]1(C(=O)N(CCCC(=O)O)Cc2cccc(Cl)c2)CCN1C(=O)c1csc2ccccc12 | 13.3% | 1.62% | 29% | 4.3% |  |  | 27.1% | -2.06% |
| CS(=O)(=O)NC[C@H]1CC[C@H](Nc2nc3c(s2)CCSc2ccccc2-3)CC1 | 23.8% |  | 67.2% | 44% | -6.3% | 7.48% |  | -4.92% |
